Series [1] can be described thus: Antiinvasive activity against mouse 26-L5 cells by transwell migration assay. The series is classed as functional, cell-based.
Series [2] is described as follows: Cytotoxicity against mouse 26-L5 cells upto 10 ug/ml. The series is classed as cell-based.
A short description of series [3]: Antiinvasive activity against mouse 26-L5 cells at 1 ug/ml by transwell migration assay. In kind it is functional.

Structures are written as SMILES. Converted amounts (≈) assume the structure as drawn.

The term IC50 denotes the point on the concentration scale where inhibition reaches its midpoint. Take `COc1ccccc1C(=O)OC[C@H]1O[C@H](O[C@H]2O[C@H](COC(=O)c3ccccc3OC)[C@@H](O)[C@H](O)[C@H]2O)[C@H](O)[C@@H](O)[C@@H]1O`: in series [1] (Mus musculus, read-out: IC50), the IC50 turned out to be 1 µg/mL (≈ 1.64 µM). Further, the Activity result in series [2] was “Non-toxic”.
As for `Cc1ccccc1C(=O)OC[C@H]1O[C@H](O[C@H]2O[C@H](COC(=O)c3ccccc3C)[C@@H](O)[C@H](O)[C@H]2O)[C@H](O)[C@@H](O)[C@@H]1O`, in series [1], the concentration for half-maximal inhibition (IC50) entry is “Not Active”. In addition, in series [2], the Activity result is on record as “Non-toxic”.
In the case of `COc1ccc(C(=O)OC[C@H]2O[C@H](O[C@H]3O[C@H](COC(=O)c4ccc(OC)cc4)[C@@H](O)[C@H](O)[C@H]3O)[C@H](O)[C@@H](O)[C@@H]2O)cc1`, the IC50 result in series [1] was “Not Active”. Moreover, the Activity result in series [2] is “Non-toxic”.
Turning to `O=C(OC[C@H]1O[C@H](O[C@H]2O[C@H](COC(=O)c3ccc(O)cc3)[C@@H](O)[C@H](O)[C@H]2O)[C@H](O)[C@@H](O)[C@@H]1O)c1ccc(O)cc1`, in series [1] (Mus musculus, read-out: IC50), the IC50 was determined as 1 µg/mL (≈ 1.72 µM). Besides, the Activity result in series [2] was “Non-toxic”.
For `COc1cccc(C(=O)OC[C@H]2O[C@H](O[C@H]3O[C@H](COC(=O)c4cccc(OC)c4OC)[C@@H](O)[C@H](O)[C@H]3O)[C@H](O)[C@@H](O)[C@@H]2O)c1OC`, in that order: 0.1 µg/mL (≈ 0.149 µM) and “Non-toxic”.
As for `COc1cc(C(=O)OC[C@H]2O[C@H](O[C@H]3O[C@H](COC(=O)c4cc(OC)c(OC)c(OC)c4)[C@@H](O)[C@H](O)[C@H]3O)[C@H](O)[C@@H](O)[C@@H]2O)cc(OC)c1OC`, the IC50 result in series [1] was “Not Active”. In addition, the Activity result in series [2] is given as “Non-toxic”.
The like results for `COc1cc(C(=O)OC[C@H]2O[C@H](O[C@H]3O[C@H](COC(=O)c4ccc(F)c(OC)c4)[C@@H](O)[C@H](O)[C@H]3O)[C@H](O)[C@@H](O)[C@@H]2O)ccc1F` were, in that order, “Not Active” and “Non-toxic”.
For `O=C(OC[C@H]1O[C@H](O[C@H]2O[C@H](COC(=O)c3c(F)cccc3F)[C@@H](O)[C@H](O)[C@H]2O)[C@H](O)[C@@H](O)[C@@H]1O)c1c(F)cccc1F`, the IC50 in series [1] (Mus musculus, read-out: IC50) came to 1 µg/mL (≈ 1.61 µM). Moreover, the Activity entry in series [2] is “Non-toxic”.
Regarding `CCNc1cccc(C)c1C(=O)OC[C@H]1O[C@H](O[C@H]2O[C@H](COC(=O)c3c(C)cccc3NCC)[C@@H](O)[C@H](O)[C@H]2O)[C@H](O)[C@@H](O)[C@@H]1O`, the 50% inhibitory concentration (IC50) in series [1] (Mus musculus, read-out: IC50) is 1 µg/mL (≈ 1.5 µM). Further, the Activity result in series [2] was “Non-toxic”.
A word on the inhibition: it is how much of the control response was suppressed. Regarding `O=C(OC[C@H]1O[C@H](O[C@H]2O[C@H](COC(=O)c3cccc(O)c3O)[C@@H](O)[C@H](O)[C@H]2O)[C@H](O)[C@@H](O)[C@@H]1O)c1cccc(O)c1O`, in series [1] (Mus musculus, read-out: IC50), the IC50 is less than 1 µg/mL. The molecule also had an inhibition at 1 µg/mL in series [3] of 40%. Further, the Activity entry in series [2] is on record as “Non-toxic”.
In the case of `O=C(OC[C@H]1O[C@H](O[C@H]2O[C@H](COC(=O)c3ccccc3O)[C@@H](O)[C@H](O)[C@H]2O)[C@H](O)[C@@H](O)[C@@H]1O)c1ccccc1O`, the half-maximal inhibitory concentration (IC50) in series [1] (Mus musculus, read-out: IC50) is less than 1 µg/mL. The molecule also gave an inhibition at 1 µg/mL in series [3] of 35%. In series [2], the Activity result is reported as “Non-toxic”.
With `Cc1cc(O)cc(O)c1C(=O)OC[C@H]1O[C@H](O[C@H]2O[C@H](COC(=O)c3c(C)cc(O)cc3O)[C@@H](O)[C@H](O)[C@H]2O)[C@H](O)[C@@H](O)[C@@H]1O` [BRARTEMICIN], the IC50 in series [1] (Mus musculus, read-out: IC50) was found to be 0.25 µg/mL (≈ 0.389 µM). In addition, the Activity entry in series [2] is listed as “Non-toxic”.

These data come from ChEMBL document CHEMBL1667848, “Synthesis and evaluation of trehalose-based compounds as anti-invasive agents” (Bioorg Med Chem Lett, 2011).
